The values below are quoted from earlier work in patent publication US4665086A, “Method for minimizing disturbances in circadian rhythms of bodily performance and function” (priority 1983, dated 1987).

Structures are written as SMILES.

The subject of data set [1] is endogenous melatonin secretion. The note with it: beta blocker; cited from earlier work.
Data set [2] deals with laboratory animals. The note with it: chronic administration, cited from earlier work; for effect on rhythm (splitting): monoamine oxidase inhibitors.
Data set [3] concerns melatonin synthesis. As to conditions: rats, exogenous administration; cited from earlier work.

For `CC(C)NC[C@H](O)COc1cccc2ccccc12` (racemic) [PROPANOLOL], the “effect on endogenous melatonin secretion” value in data set [1] was “can inhibit endogenous melatonin secretion”.
In the case of `CN(C)CCCN1c2ccccc2CCc2ccccc21` [imipramine], in data set [2], the “effect on rhythm (splitting)” value was “split the rhythm” and the “effect on unentrained, free-running period” value (from here on “effect … free-running period”) is recorded as “lengthens the unentrained, free-running period”.
Regarding `C#CCN(C)CCCOc1ccc(Cl)cc1Cl` [clorgyline], in data set [2], the “effect on rhythm (splitting)” value is listed as “split the rhythm” and the “effect … free-running period” value was “lengthens the unentrained, free-running period”.
In the case of `[Li]` [lithium], the “effect … free-running period” value in data set [2] was “lengthens the unentrained, free-running period”.
For the molecule `N[C@@H](Cc1ccc(O)c(O)c1)C(=O)O` [L-dopa], the “effect on melatonin synthesis” value in data set [3] is listed as “stimulates melatonin synthesis”.
For the molecule `[2H]O[2H]` [heavy water (D2 O)], in data set [2], the “effect … free-running period” value is “lengthens the unentrained, free-running period”.
